From US7700741B2, “High affinity anti-N1,N12-diacetylspermine monoclonal antibody” (Trans Genic Inc., priority 2005, dated 2010)

Experiments:
[1] = biological target: anti-DiAcSpm monoclonal antibody; assay: Kit competitive ELISA with solid-phased AcSpm-HMC-peptide, crossreactivities of structure analogs; assay type: binding, mouse; settings: for KiDiAcSpm/Ki"S" (%) . . . (1): 15 ng/ml antibody, 0.07 μg/ml solid-phased antigen; for Crossreactivity (1) × (2) (%): crossreactivity in urine, Ki ratio × urinary ratio
Protocol: As a measuring kit, competitive ELISA using a solid-phased antigen AcSpm-HMC-peptide was performed based on known methods (Hiramatsu, K. et al., J. Biochem., 124, 231-236 (1998)). As the primary antibody, the monoclonal antibody prepared in Example 1 was used. As the secondary antibody, a commercial, goat-derived HRP-labeled anti-mouse IgG antibody (KPL) was used. The concentration of the solid-phased antigen was set at 0.07 μg/ml based on the concentration employed in a kit using anti-DiAcSpm polyclonal antibody. With respect to the concentration of anti-DiAcSpm monoclonal antibody to be used, 15 ng/ml was selected so that 40% of the maximum reaction efficiency (the point at which the absorbance at 492 nm becomes 1) is achieved when the concentration of the solid-phased antigen AcSpm-HMC-peptide is 0.07 μg/ml (FIG. 4). The dilution ratio of the goat-derived HRP-labeled anti-mouse IgG antibody was set at 2,500-fold from experience.
First, under the conditions established in (1) above, crossreactivities of structure analogs of DiAcSpm with DiAcSpm in urine samples were examined. Briefly, the 50% inhibition activity concentrations of DiAcSpm, N^1-AcSpm, DiAcSpd, N^1-AcSpd, N^8-AcSpd and DiAcPut in the kit were examined, and the crossreactivities of other structure analogs with DiAcSpm in urine were calculated. As a result, crossreactivity with N^1-AcSpd (whose crossreactivity is most apprehended) was 1.62%; crossreactivity with AcSpm was 0.54%; crossreactivity with DiAcSpd was 0.002%; crossreactivity with N^8-AcSpd was 0.01%; crossreactivity with AcPut was 0.01%; and the total crossreactivity was 2.17% (Table 2).

[2] = tested on: monoclonal antibodies to DiAcSpm (Fujiwara et al., Japanese Unexamined Patent Publication No. H11-75839); settings: prior-art monoclonal antibodies; cited from earlier work
[3] = tested on: anti-DiAcSpm monoclonal antibody CN647; assay: Crossreactivity test on cloned wells (culture supernatant of CN647 strain); assay type: binding, mouse; settings: all three cloned wells, one designated CN647; FIG. 3
Protocol: Briefly, cells were diluted with 20% FCS-containing RPMI medium to a density of 2.5 cells/ml and added to two 96-well culture plates at 200 μl/well. After five days, single colonies were examined. As a result, a single colony was confirmed in 17 wells out of the two 96-well plates. After 10 days, antibody titers to DiAcSpm were measured in culture supernatants by the method described in Experimental Example 2. Three wells were positive. Cells in these three wells were cultured further and tested for crossreactivities with AcSpm, N^1-AcSpd, N^8-AcSpd, DiAcSpd and AcPut by the method described in Experimental Example 3. […] Thus, antibodies sufficient to achieve the object have been obtained (FIG. 3). One of them was designated “established clone CN647”.
Antibody titers in diluted culture supernatants were measured by the method described in Experimental Example 2. Based on the results, the dilution rate with which the absorbance at 492 nm becomes 1 was selected. To each well of dilution plates, 70 μl of culture supernatant diluted at the dilution rate selected above and 70 μl of DiAcSpm solution with serially varied concentration or a structure analog of DiAcSpm (N^1-AcSpm, N^1-AcSpd, DiAcSpd, or the like) with serially varied concentration were mixed and added, and then left at 25° C. for 1 hour for pre-reaction. Subsequently, to each well of freeze-dried plates prepared in the same manner as in Experimental Example 1, 300 μl of BST was added, left at 25° C. for 30 minutes and re-washed with BST once. To the resultant plates, the pre-reacted reaction solution was added at 50 μl/well and left at 25° C. for 1 hour. Then, after washing with PBST three times, 50 μl of 80-fold dilution of HRP-labeled anti-mouse IgG antibody (KPL) was added to each well and left at 25° C. for 1 hour. […] Then, absorbances at 492 nm were measured with an ELISA reader.

[4] = tested on: anti-DiAcSpm antibodies in culture supernatants of DiAcSpm positive clones; assay: Crossreactivity test on antibody production positive clones (culture supernatant, competitive ELISA); assay type: binding, mouse
From the text: Out the DiAcSpm positive clones obtained above, 51 clones with relatively high antibody titers were selected and tested for crossreactivity with N^1-AcSpd (which is present in urine abundantly and believed to cross-react relatively easy from the results of researches made so far) by the method described later in Experimental Example 3. As a result, with respect to two wells, the 50% reaction inhibition activity of N^1-AcSpd was about 800 times as much as that of DiAcSpm; with respect to one well, the 50% reaction inhibition activity of N^1-AcSpd was 3,000 times as much as that of DiAcSpm; and with respect to the other wells, the 50% reaction inhibition activity of N^1-AcSpd was 0-200 times as much as that of DiAcSpm.
Antibody titers in diluted culture supernatants were measured by the method described in Experimental Example 2. Based on the results, the dilution rate with which the absorbance at 492 nm becomes 1 was selected. To each well of dilution plates, 70 μl of culture supernatant diluted at the dilution rate selected above and 70 μl of DiAcSpm solution with serially varied concentration or a structure analog of DiAcSpm (N^1-AcSpm, N^1-AcSpd, DiAcSpd, or the like) with serially varied concentration were mixed and added, and then left at 25° C. for 1 hour for pre-reaction. Subsequently, to each well of freeze-dried plates prepared in the same manner as in Experimental Example 1, 300 μl of BST was added, left at 25° C. for 30 minutes and re-washed with BST once. To the resultant plates, the pre-reacted reaction solution was added at 50 μl/well and left at 25° C. for 1 hour. Then, after washing with PBST three times, 50 μl of 80-fold dilution of HRP-labeled anti-mouse IgG antibody (KPL) was added to each well and left at 25° C. for 1 hour. Subsequently, after washing with PBST three times, 100 μl of o-phenylenediamine solution diluted with 0.012% hydrogen peroxide-containing 0.1 M citrate phosphate buffer (pH 5.0) to 0.5 mg/ml was added to each well and left at 25° C. for 9 minutes. Then, absorbances at 492 nm were measured with an ELISA reader.

[5] = tested on: monoclonal antibodies to DiAcSpm (Fujiwara et al., Japanese Unexamined Patent Publication No. H11-75839); assay: Prior-art 50% binding inhibition of immunoreaction (Fujiwara et al. antibodies); settings: crossreactivity with DiAcSpm taken as 100; N^1-AcSpd about 25 times DiAcSpm in urine
From the text: Recently, Fujiwara et al. prepared monoclonal antibodies to DiAcSpm (Japanese Unexamined Patent Publication No. H11-75839). With these antibodies, 50% binding inhibition activity against immunoreaction with DiAcSpm is only about 100 times as much as 50% binding inhibition activity against immunoreaction with N^1-acetylspermidine (hereinafter expressed as “N^1-AcSpd”) and is only about 20 times as much as 50% binding inhibition activity against immunoreaction with N^1-acetylspermine (hereinafter expressed as “N^1-AcSpm”) which is a monoacetylated form of spermine. Since the amount of N^1-AcSpd in the urine of healthy persons is about 25 times as much as the amount of DiAcSpm therein, the crossreactivity of the above antibody with N^1-AcSpd in the urine of healthy persons is 25 when the crossreactivity of the antibody with DiAcSpm therein is taken as 100. Therefore, the antibody may yield false-positive results. Accordingly, in order to enhance the measuring sensitivity for DiAcSpm, a DiAcSpm-specific monoclonal antibody whose crossreactivities with N^1-AcSpd and N^8-acetylspermidine (hereinafter expressed as “N^8-AcSpd”) are still lower is required.

[6] = tested on: anti-DiAcSpm polyclonal antibody; assay: Evaluation of immunizing antigen lots (inhibition of polyclonal antibody reaction with solid-phased antigen); assay type: binding, rabbit; settings: six lots compared; absorbance at 492 nm; FIG. 1
Protocol: The antigen was evaluated using DiAcSpm specific polyclonal antibody. Six lots of the antigen prepared in (1) above were examined on their activities to inhibit the reaction of anti-DiAcSpm polyclonal antibody with solid-phased AcSpm-HMC-AcSpm, by the method described later in Experimental Example 1.
AcSpm-HMC-peptide diluted with PBS (pH 7.0) to 0.07 μg/ml was added to 96-well microtiter plates at 50 μl/well as an antigen to be solid-phased, and left at 25° C. for 1.5 hours. Subsequently, the plates were washed with 0.05% Tween20-containing PBS (pH 7.0) (PBST) three times. Then, 0.5% gelatin-containing PBST (blocking solution) was added thereto at 200 μl/well and left at 25° C. for 1 hour. The plates were frozen at −30° C. overnight to freeze the blocking solution for freeze-drying to thereby prepare freeze-dried plates. To each well of dilution plates, 70 μl of 10 μg/ml anti-DiAcSpm polyclonal antibody and 70 μl of each lot of the immunizing antigen AcSpm-GMB-AMS-BSA with serially varied concentration were mixed and added, and left at 25° C. for 1 hour for pre-reaction. Subsequently, to each well of the freeze-dried plates prepared in Experimental Example 1, 300 μl of PBST was added, left at 25° C. for 30 minutes and then re-washed with PBST once. To each well of these plates, 50 μl of the pre-reacted reaction solution was added and left at 25° C. for 1 hour. Then, after washing with PBST three times, 50 μl of 80-fold dilution of HRP-labeled anti-rabbit IgG antibody (Bio-Rad) was added to each well and left at 25° C. for 1 hour. Subsequently, after washing with PBST three times, 100 μl of o-phenylenediamine solution diluted with 0.012% hydrogen peroxide-containing 0.1 M citrate phosphate buffer (pH 5.0) to 0.5 mg/ml was added to each well and left at 25° C. for 9 minutes. Then, absorbances at 492 nm were measured with an ELISA reader.

| Compound | KiDiAcSpm/Ki"S" (%) . . . (1) [1] | Crossreactivity (1) × (2) (%) [1] | 50% inhibition activity of DiAcSpm relative to that of the analog [3] | activity to inhibit the reaction of anti-DiAcSpm polyclonal antibody with solid-phased antigen [6] | other results |
| --- | --- | --- | --- | --- | --- |
| CC(=O)NCCCCN [AcPut] | 0.0001% | 0.01% | – | – | – |
| CC(=O)NCCCNCCCCNCCCN [AcSpm, N^1-acetylspermine] | 1.7072% | 0.54% | about 70 times | – | 50% binding inhibition activity against immunoreaction with DiAcSpm relative to that with the analog [2]: about 20 times |
| CC(=O)NCCCCNCCCNC(C)=O [DiAcSpd, N^1,N^8-diacetylspermidine] | 0.0008% | 0.002% | – | – | – |
| CC(=O)NCCCNCCCCNCCCNC(C)=O [DiAcSpm, N^1,N^12-diacetylspermine] | 100% | 100% | about 100,000 times | – | – |
| CC(=O)NCCCNCCCCN [N1-AcSpd, N^1-acetylspermidine] | 0.0610% | 1.62% | about 1,000 times | – | 50% binding inhibition activity against immunoreaction with DiAcSpm relative to that with the analog [2]: about 100 times; 50% reaction inhibition activity of N^1-AcSpd relative to that of DiAcSpm ([4]; one well of 51 selected clones): 3,000 times; 50% reaction inhibition activity of N^1-AcSpd relative to that of DiAcSpm ([4]; the other wells of 51 selected clones): 0-200 times; 50% reaction inhibition activity of N^1-AcSpd relative to that of DiAcSpm ([4]; two wells of 51 selected clones): about 800 times; crossreactivity of the antibody with the analog in the urine of healthy persons [5]: 25 |
| CC(=O)NCCCCNCCCN [N8-AcSpd, N^8-acetylspermidine] | 0.0003% | 0.01% | – | – | – |
| AcSpm-GMB-AMS-BSA [lot No. 1] | – | – | – | highest inhibition activity | – |
| AcSpm-GMB-AMS-BSA [lot No. 5] | – | – | – | comes next | – |
| AcSpm-GMB-AMS-BSA [lot No. 6] | – | – | – | highest inhibition activity | – |
